Reference: the supplement of paper PMC10307832

Columns and labels:
Test in all cases: relative viability (nuclei count vs DMSO), 5 days (fraction); higher = more cells survive
Darinaparsin + Foretinib = compound: C[As](C)SC[C@H](NC(=O)CC[C@H](N)C(=O)O)C(=O)NCC(=O)O [Darinaparsin] + COc1cc2c(Oc3ccc(NC(=O)C4(C(=O)Nc5ccc(F)cc5)CC4)cc3F)ccnc2cc1OCCCN1CCOCC1 [Foretinib] (partner 0.25 µM)
Summary of the method: (§1)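 A single step with final 0.05% Triton X-100, 1% formaldehyde and 1 ug/ml Hoechst fixed the cells and stained nuclei 5 days after treatment. Lung cancer cell lines in 1536-well plates had been treated by pin tool the day after seeding with one drug alone or a fixed anchor-drug dose plus five library-drug doses (not always all listed) in √10 steps, and nuclei were counted on 4× images. Relative viability is the ratio of nuclei in treated wells to nuclei in vehicle wells, taken as the median of duplicate plates.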

QS11 + Linsitinib = compound: C1CC2=C(C1)C=C(C=C2)OC3=NC(=C4C(=N3)N(C=N4)CC5=CC=C(C=C5)C6=CC=CC=C6)N[C@@H](CC7=CC=CC=C7)CO [QS11] + C[C@]1(O)C[C@@H](c2nc(-c3ccc4ccc(-c5ccccc5)nc4c3)c3c(N)nccn32)C1 [Linsitinib] (partner 1 µM)
Summary of the method: as §1

AZ628 + Navitoclax = compound: CC1=C(C=C(C=C1)NC(=O)C2=CC(=CC=C2)C(C)(C)C#N)NC3=CC4=C(C=C3)N=CN(C4=O)C [AZ628] + CC1(C)CCC(c2ccc(Cl)cc2)=C(CN2CCN(c3ccc(C(=O)NS(=O)(=O)c4ccc(N[C@H](CCN5CCOCC5)CSc5ccccc5)c(S(=O)(=O)C(F)(F)F)c4)cc3)CC2)C1 [Navitoclax] (partner 0.5 µM)
Summary of the method: as §1

Darinaparsin + Alpelisib = compound: C[As](C)SC[C@H](NC(=O)CC[C@H](N)C(=O)O)C(=O)NCC(=O)O [Darinaparsin] + Cc1nc(NC(=O)N2CCC[C@H]2C(N)=O)sc1-c1ccnc(C(C)(C)C(F)(F)F)c1 [Alpelisib] (partner 2 µM)
Summary of the method: as §1

Cell Line | relative viability (Darinaparsin + Foretinib; first compound 0.08 µM) | relative viability (Darinaparsin + Foretinib; first compound 0.8 µM) | relative viability (Darinaparsin + Foretinib; first compound 2.53 µM) | relative viability (Darinaparsin + Foretinib; first compound 8 µM) | relative viability (QS11 + Linsitinib; first compound 0.08 µM) | relative viability (QS11 + Linsitinib; first compound 0.253 µM) | relative viability (QS11 + Linsitinib; first compound 2.53 µM) | relative viability (QS11 + Linsitinib; first compound 8 µM) | relative viability (AZ628 + Navitoclax; first compound 0.08 µM) | relative viability (AZ628 + Navitoclax; first compound 0.253 µM) | relative viability (AZ628 + Navitoclax; first compound 0.8 µM) | relative viability (AZ628 + Navitoclax; first compound 2.53 µM) | relative viability (AZ628 + Navitoclax; first compound 8 µM) | relative viability (Darinaparsin + Alpelisib; first compound 0.08 µM) | relative viability (Darinaparsin + Alpelisib; first compound 0.8 µM) | relative viability (Darinaparsin + Alpelisib; first compound 2.53 µM) | relative viability (Darinaparsin + Alpelisib; first compound 8 µM) | relative viability (QS11 + Linsitinib; first compound 0.8 µM)
HCC-366 | 0.905 | 0.91 | 0.965 | 1.14 | 0.696 | 0.575 | 0.355 | 0.303 | 1.01 | 1.09 | 0.997 | 0.97 | 0.598 | 0.753 | 0.424 | 0.329 | 0.706 | –
HCC-827 | 1.16 | 1.09 | 1.02 | 1.06 | 0.977 | 1.04 | 0.929 | 0.821 | 0.986 | 1 | 0.954 | 1.02 | 0.811 | 1.05 | 1.04 | 1.01 | 1.04 | 0.877
HOP-62 | 1.2 | 1.16 | 0.969 | 1.13 | 0.784 | 1.05 | 0.616 | 0.913 | 1.09 | 1.17 | 1.02 | 1.1 | 0.729 | 1.24 | 0.755 | 0.786 | 0.991 | 0.852
IA-LM | 1.51 | 1.27 | 1.35 | 1.55 | 0.548 | 0.417 | 0.389 | 0.601 | 1.15 | 0.716 | 0.641 | 0.761 | 0.0904 | 1.02 | 0.663 | 1.4 | 0.965 | 0.29
LC-2-ad | 0.949 | 1.02 | 0.987 | 0.836 | 0.791 | 0.832 | 0.817 | 0.829 | 0.406 | 0.348 | 0.589 | 0.54 | 0.347 | 0.954 | 0.832 | 0.856 | 1.01 | 0.699
LCLC-103H | 0.858 | 0.745 | 0.626 | 0.858 | 1.08 | 1.1 | 1.21 | 1.09 | – | – | – | – | – | 0.945 | 0.982 | 0.915 | 1.11 | 0.74
LK-2 | 1.98 | – | 0.769 | 1.83 | 0.341 | 0.619 | 0.31 | 0.81 | 1.07 | 0.887 | 0.847 | 0.818 | 0.634 | 1.37 | – | 1.31 | 1.42 | 0.668
LOU-NH91 | 0.926 | 0.92 | 0.961 | 0.954 | 0.901 | 0.862 | 0.891 | 0.876 | 0.681 | 0.713 | 0.713 | 0.654 | 0.4 | 0.703 | 0.718 | 0.749 | 0.68 | –
LU99A | 0.833 | 0.703 | 0.806 | 0.819 | 0.529 | 0.561 | 0.465 | 0.38 | 0.856 | 0.859 | 0.865 | 0.895 | 0.296 | 0.592 | 0.52 | 0.457 | 0.606 | 0.555
LXF-289 | 1.07 | 0.994 | 0.946 | 1.1 | 0.977 | 1.01 | 0.896 | 0.72 | 0.941 | 0.875 | 0.87 | 0.942 | 0.568 | 1.11 | 1.06 | 0.851 | 1.16 | 0.681
NCI-H23 | 0.986 | 0.843 | 0.891 | 1.06 | 0.624 | 0.528 | 0.477 | 0.404 | 0.878 | 0.868 | 0.61 | 0.783 | 0.559 | 0.926 | 0.582 | 0.711 | 0.681 | 0.561
NCI-H322M | 1.04 | 1.04 | 0.826 | 1.02 | 0.93 | 0.914 | 1.02 | 0.936 | 1.34 | 1.14 | 1.19 | 1.24 | 0.914 | 0.89 | 0.692 | 0.632 | 0.787 | 0.931
NCI-H358 | 0.758 | 0.693 | 0.648 | 0.799 | 0.731 | 0.779 | 1.49 | 1.33 | – | – | – | – | – | 0.922 | 0.87 | 0.817 | 0.994 | 0.952
NCI-H650 | 1.09 | 1.05 | 1.13 | 1.03 | 0.81 | 0.943 | 0.87 | 0.929 | – | – | – | – | – | 1.17 | 1.15 | 1.27 | 1.31 | 0.859
NCI-H661 | 1.01 | 0.995 | 1.08 | 1.26 | 0.522 | 0.681 | 0.408 | 0.549 | – | – | – | – | – | 0.632 | 0.692 | 0.683 | 0.668 | 0.556
NCI-H1563 | 1.02 | 0.901 | 0.826 | 0.999 | 1.16 | 1.3 | 1.34 | 1.32 | – | – | – | – | – | 0.903 | 0.91 | 1.01 | 0.894 | 1.26
NCI-H1623 | 0.902 | 0.832 | 0.871 | 0.868 | – | – | – | – | – | – | – | – | – | – | – | – | – | –
NCI-H1650 | 0.869 | 1.06 | 0.791 | 1.33 | – | – | – | – | 1.34 | 1.22 | 1.38 | 1.15 | 0.949 | – | – | – | – | –
NCI-H1792 | – | – | – | – | – | 0.559 | 0.537 | 0.68 | 0.682 | 0.619 | 0.545 | 0.591 | 0.44 | 0.684 | 0.575 | 0.493 | 1.03 | 0.43
NCI-H2170 | 1.01 | 0.965 | 0.992 | 1.19 | – | – | – | – | 0.654 | 0.636 | 0.707 | 0.748 | 0.721 | 0.927 | 0.759 | 0.629 | 1.13 | –
NCI-H2342 | 0.959 | 1.04 | 1.03 | 1.17 | – | – | – | – | – | – | – | – | – | – | – | – | – | –
SW 900 | 0.919 | 0.778 | 0.918 | 1.06 | – | – | – | – | – | – | – | – | – | – | – | – | – | –
